PMC9269301, “Phytochemical Analysis, Antioxidant, Antimicrobial, and Cytotoxic Activity of Different Extracts of Xanthoparmelia stenophylla Lichen from Stara Planina, Serbia” (Plants, 2022)
≈ marks a conversion by molar mass, not a printed value. Where two headings read alike, the source gives them in different places.

Assays:
E. coli (isolate) = test: Microdilution with resazurin, antibacterial; format: cell-based, Escherichia coli
Procedure: (§1) The tested methanol, acetone, and n-hexane extracts, as well as the component (usnic acid) of X. stenophylla, were dissolved in 10% dimethyl sulfoxide (DMSO) and then diluted into the nutrient liquid medium. DMSO was obtained from Acros Organics (Fair Lawn, NJ, USA). Resazurin was obtained from Alfa Aesar GmbH & Co. (KG, Karlsruhe, Germany).
(§2) The antimicrobial activity of the extracts and components was tested against 19 microorganisms. The experiment involved 15 strains of bacteria (i.e., 6 standard strains: Staphylococcus aureus ATCC 6538, Bacillus subtilis ATCC 6633, Proteus mirabilis ATCC 12453, Pseudomonas aeruginosa ATCC 27853, Klebsiella pneumoniae ATCC 70063, and Escherichia coli ATCC 25922; 9 isolates: Staphylococcus aureus, Escherichia coli, Salmonella enterica, Salmonella Typhimurium, Proteus mirabilis, Klebsiella pneumoniae, Pseudomonas aeruginosa, Bacillus subtilis, and Bacillus cereus). In addition, four fungal strains (i.e., two standard strains: Candida albicans ATCC 10231 and Aspergillus niger ATCC 16888; two isolates: Saccharomyces cerevisiae and Candida albicans) were tested. All isolates were a generous gift from the Institute of Public Health, Kragujevac. The other microorganisms were provided from the collection held by the Microbiology Laboratory Faculty of Science, University of Kragujevac.
(§3) The bacterial suspensions were prepared by the direct colony method. The turbidity of the initial suspension was adjusted using a densitometer (DEN-1, BioSan, Riga, Latvia). When adjusted to the turbidity of the 0.5 McFarland’s standard (Andrews, 2005) the bacteria suspension contained approximately 10^8 colony-forming units (CFU)/mL, and the suspension of yeast contained 10^6 CFU/mL; 1:100 dilutions of the initial suspension were additionally prepared in sterile 0.85% saline. The suspensions of fungal spores were prepared by gentle stripping of spores from slopes with growing mycelia. The resulting suspensions were 1:1000 diluted in sterile 0.85% saline.
(§4) Antimicrobial activity was tested by determining the minimum inhibitory concentrations (MICs) and minimum microbicidal concentrations (MBCs) using the microdilution plate method with resazurin [56]. The 96-well plates were prepared by dispensing 100 μL of Mueller–Hinton broth for bacteria and Sabouard broth for fungi into each well. A 10 μL aliquot from the stock solution of the tested extract or component was added to the first row of the plate. Then, two-fold serial dilutions were performed using a multichannel pipette. The obtained concentration range was from 10 to 0.08 mg/mL. The method is described in detail in [76].
(§5) Each test included growth control and sterility control.
(§6) Minimum microbicidal concentrations were determined by plating 10 μL of samples from wells where no indicator color change or no mycelia growth was recorded on a nutrient agar medium. At the end of the incubation period, the lowest concentration with no growth (no colony) was defined as the minimum microbicidal concentration.

E. coli ATCC 25922 = test: Microdilution with resazurin, antibacterial; format: cell-based, Escherichia coli
Procedure: as §1, §2, §3, §4, §5, §6

S. enterica (isolate) = test: microbe, parasite or virus in culture; format: cell-based, Salmonella enterica
Procedure: as §1, §2, §3, §4, §5, §6

S. Typhimurium (isolate) = test: Microdilution with resazurin, antibacterial; format: cell-based, Salmonella Typhimurium
Procedure: as §1, §2, §3, §4, §5, §6

P. mirabilis (isolate) = test: Microdilution with resazurin, antibacterial; format: cell-based, Proteus mirabilis
Procedure: as §1, §2, §3, §4, §5, §6

P. mirabilis ATCC 12453 = test: Microdilution with resazurin, antibacterial; format: cell-based, Proteus mirabilis
Procedure: as §1, §2, §3, §4, §5, §6

K. pneumoniae (isolate) = test: Microdilution with resazurin, antibacterial; format: cell-based, Klebsiella pneumoniae
Procedure: as §1, §2, §3, §4, §5, §6

K. pneumoniae ATCC 70063 = test: Microdilution with resazurin, antibacterial; format: cell-based, Klebsiella pneumoniae
Procedure: as §1, §2, §3, §4, §5, §6

P. aeruginosa (isolate) = test: Microdilution with resazurin, antibacterial; format: cell-based, Pseudomonas aeruginosa
Procedure: as §1, §2, §3, §4, §5, §6

B. subtilis (isolate) = test: Microdilution with resazurin, antibacterial; format: cell-based, Bacillus subtilis
Procedure: as §1, §2, §3, §4, §5, §6

B. subtilis ATCC 6633 = test: Microdilution with resazurin, antibacterial; format: cell-based, Bacillus subtilis
Procedure: as §1, §2, §3, §4, §5, §6

B. cereus (isolate) = test: Microdilution with resazurin, antibacterial; format: cell-based, Bacillus cereus
Procedure: as §1, §2, §3, §4, §5, §6

P. aeruginosa biofilm = test: Antibiofilm activity (biofilm formation, crystal violet); format: cell-based, Pseudomonas aeruginosa; settings: P. aeruginosa, 37 °C, 48 h
Procedure: The ability of S. aureus ATCC 6538 and P. aeruginosa to form biofilms was assayed as described by O’Toole et al. with some modifications. Briefly, the tissue culture of 96-well microtiter plates (Sarstedt, Germany) were prepared by dispensing 100 µL of nutrient broth (i.e., Mueller–Hinton broth) into each well. Ten microliters of spore suspension (10^8 colony-forming units (CFU)/mL) was added into each row. […] Biofilms formed by adherent cells in 96-well microtiter plates were stained with crystal violet (0.1% w/v; Fluka AG, Buchs, Switzerland) and incubated at room temperature for 20 min. Excess stain was rinsed off by thorough washing with deionized water and then with […] of 96% ethanol. Optical densities (ODs) of stained adherent bacteria were determined with an enzyme-linked immunosorbent assay (ELISA) plate reader (RT-2100C, Rayto, Shenzhen, China) at a 630 nm wavelength. Only broth served as a control to check sterility and nonspecific binding of media. To compensate for background absorbance, OD readings from sterile medium, fixative, and dye were averaged and subtracted from all test values. All tests were performed in duplicate. The tissue culture of 96-well microtiter plates (Sarstedt, Nümbrecht, Germany) were prepared by dispensing 100 µL of nutrient broth (i.e., Mueller–Hinton broth) into each well. From the stock solution of the tested extracts or components (concentration: 20 mg/mL), 100 µL was added to the first row of the microtiter plate. Two-fold serial dilutions were then made using a multichannel pipette, following which 10 µL of fresh bacterial suspension was added to each well. The inoculated microtiter plates were incubated at 37 °C for 48 h. After incubation, the content of each well was gently removed by tapping the microtiter plates. […] Biofilms formed by adherent cells in 96-well microtiter plates were stained with crystal violet (0.1% w/v; Fluka AG, Switzerland) and incubated at room temperature for 20 min. Excess stain was rinsed off by thorough washing with deionized water and then with […] densities (ODs) of stained adherent bacteria were determined with an enzyme-linked immunosorbent assay (ELISA) plate reader at a 630 nm wavelength. […] Only broth or broth with extracts served as a control to check the sterility and nonspecific binding of media. To compensate for background absorbance, OD readings from sterile medium, extracts, fixative, and dye were averaged and subtracted from all test values. All tests were performed in duplicate.

[1] = S. enterica, extracts and usnic acid

**Q.** usnic acid was tested. Which MBC (E. coli (isolate); extracts and usnic acid) did it give?
**A.** <10000 µg/mL

**Q.** And the MIC (E. coli (isolate); extracts and usnic acid)?
**A.** <10000 µg/mL

**Q.** And the MBC (E. coli ATCC 25922; extracts and usnic acid)?
**A.** <10000 µg/mL

**Q.** And the MIC (E. coli ATCC 25922; extracts and usnic acid)?
**A.** <10000 µg/mL

**Q.** And the MBC (S. enterica (isolate); [1])?
**A.** <10000 µg/mL

**Q.** What about the MIC (S. enterica (isolate); [1]) of the same compound?
**A.** <10000 µg/mL

**Q.** What about the MBC (S. Typhimurium (isolate); extracts and usnic acid) of the same compound?
**A.** <10000 µg/mL

**Q.** What about the MIC (S. Typhimurium (isolate); extracts and usnic acid) of the same compound?
**A.** <10000 µg/mL

**Q.** And the MBC (P. mirabilis (isolate); extracts and usnic acid)?
**A.** <10000 µg/mL

**Q.** What about the MIC (P. mirabilis (isolate); extracts and usnic acid) of the same compound?
**A.** <10000 µg/mL

**Q.** What about the MBC (P. mirabilis ATCC 12453; extracts and usnic acid) of the same compound?
**A.** <10000 µg/mL

**Q.** What about the MIC (P. mirabilis ATCC 12453; extracts and usnic acid) of the same compound?
**A.** <10000 µg/mL

**Q.** And the MBC (K. pneumoniae (isolate); extracts and usnic acid)?
**A.** <10000 µg/mL

**Q.** What about the MIC (K. pneumoniae (isolate); extracts and usnic acid) of the same compound?
**A.** <10000 µg/mL

**Q.** What about the MBC (K. pneumoniae ATCC 70063; extracts and usnic acid) of the same compound?
**A.** <10000 µg/mL

**Q.** What about the MIC (K. pneumoniae ATCC 70063; extracts and usnic acid) of the same compound?
**A.** <10000 µg/mL

**Q.** And the MBC (P. aeruginosa (isolate); extracts and usnic acid)?
**A.** <10000 µg/mL

**Q.** What about the MIC (P. aeruginosa (isolate); extracts and usnic acid) of the same compound?
**A.** 10000 µg/mL

**Q.** And the MBC (B. subtilis (isolate); extracts and usnic acid)?
**A.** <80 µg/mL

**Q.** What about the MIC (B. subtilis (isolate); extracts and usnic acid) of the same compound?
**A.** <80 µg/mL

**Q.** And the MBC (B. subtilis ATCC 6633; extracts and usnic acid)?
**A.** <80 µg/mL

**Q.** And the MIC (B. subtilis ATCC 6633; extracts and usnic acid)?
**A.** <80 µg/mL

**Q.** What about the MBC (B. cereus (isolate); extracts and usnic acid) of the same compound?
**A.** <80 µg/mL

**Q.** And the MIC (B. cereus (isolate); extracts and usnic acid)?
**A.** <80 µg/mL

**Q.** And the “BIC50 (biofilm inhibitory concentration, 50% reduction of biofilm coverage)” value (P. aeruginosa biofilm)?
**A.** > 10,000 µg/mL

**Q.** And the “BIC90 (biofilm inhibitory concentration, 90% reduction of biofilm coverage)” value (P. aeruginosa biofilm)?
**A.** > 10,000 µg/mL

**Q.** What about the “BIC50 (biofilm inhibitory concentration, 50% reduction of biofilm coverage)” value (P. aeruginosa biofilm; listed as UA) of the same compound?
**A.** <10,000 µg/mL

**Q.** What about the “BIC90 (biofilm inhibitory concentration, 90% reduction of biofilm coverage)” value (P. aeruginosa biofilm; listed as UA) of the same compound?
**A.** <10,000 µg/mL

**Q.** `CN(C)[C@@H]1C(O)=C(C(N)=O)C(=O)[C@@]2(O)C(O)=C3C(=O)c4c(O)cccc4[C@@](C)(O)[C@H]3C[C@@H]12` [TC, tetracycline] was tested. Which MBC (E. coli (isolate); Escherichia coli, antibiotics, read-out: MBC) did it give?
**A.** 6 µg/mL (≈ 13.5 µM)

**Q.** What about the MIC (E. coli (isolate); Escherichia coli, antibiotics, read-out: MIC) of the same compound?
**A.** 2 µg/mL (≈ 4.5 µM)

**Q.** And the MBC (E. coli ATCC 25922; Escherichia coli, ATCC25922, antibiotics, read-out: MBC)?
**A.** 6 µg/mL (≈ 13.5 µM)

**Q.** And the MIC (E. coli ATCC 25922; Escherichia coli, ATCC25922, antibiotics, read-out: MIC)?
**A.** 4 µg/mL (≈ 9 µM)

**Q.** What about the MBC (S. enterica (isolate); Salmonella enterica) of the same compound?
**A.** 2 µg/mL (≈ 4.5 µM)

**Q.** And the MBC (S. Typhimurium (isolate); Salmonella enterica, antibiotics, read-out: MBC)?
**A.** 2 µg/mL (≈ 4.5 µM)

**Q.** And the MBC (P. mirabilis (isolate); Proteus mirabilis, antibiotics, read-out: MBC)?
**A.** > 128 µg/mL

**Q.** What about the MIC (P. mirabilis (isolate); Proteus mirabilis, antibiotics, read-out: MIC) of the same compound?
**A.** > 128 µg/mL

**Q.** And the MBC (P. mirabilis ATCC 12453; Proteus mirabilis, ATCC12453, antibiotics, read-out: MBC)?
**A.** 4 µg/mL (≈ 9 µM)

**Q.** And the MIC (P. mirabilis ATCC 12453; Proteus mirabilis, ATCC12453, antibiotics, read-out: MIC)?
**A.** 2 µg/mL (≈ 4.5 µM)

**Q.** What about the MBC (K. pneumoniae (isolate); Klebsiella pneumoniae, antibiotics, read-out: MBC) of the same compound?
**A.** 32 µg/mL (≈ 72 µM)

**Q.** What about the MIC (K. pneumoniae (isolate); Klebsiella pneumoniae, antibiotics, read-out: MIC) of the same compound?
**A.** 4 µg/mL (≈ 9 µM)

**Q.** And the MBC (K. pneumoniae ATCC 70063; Klebsiella pneumoniae, ATCC70063, antibiotics, read-out: MBC)?
**A.** 64 µg/mL (≈ 144 µM)

**Q.** What about the MIC (K. pneumoniae ATCC 70063; Klebsiella pneumoniae, ATCC70063, antibiotics, read-out: MIC) of the same compound?
**A.** 4 µg/mL (≈ 9 µM)

**Q.** And the MBC (P. aeruginosa (isolate); Pseudomonas aeruginosa, antibiotics, read-out: MBC)?
**A.** > 128 µg/mL

**Q.** What about the MIC (P. aeruginosa (isolate); Pseudomonas aeruginosa, antibiotics, read-out: MIC) of the same compound?
**A.** > 128 µg/mL

**Q.** What about the MBC (B. subtilis (isolate); Bacillus subtilis, antibiotics, read-out: MBC) of the same compound?
**A.** 0.25 µg/mL (≈ 0.563 µM)

**Q.** And the MIC (B. subtilis (isolate); Bacillus subtilis, antibiotics, read-out: MIC)?
**A.** < 0.06 µg/mL

**Q.** What about the MBC (B. subtilis ATCC 6633; Bacillus subtilis, ATCC6633, antibiotics, read-out: MBC) of the same compound?
**A.** 0.37 µg/mL (≈ 0.833 µM)

**Q.** And the MIC (B. subtilis ATCC 6633; Bacillus subtilis, ATCC6633, antibiotics, read-out: MIC)?
**A.** 0.25 µg/mL (≈ 0.563 µM)

**Q.** What about the MBC (B. cereus (isolate); Bacillus cereus, antibiotics, read-out: MBC) of the same compound?
**A.** 0.5 µg/mL (≈ 1.13 µM)

**Q.** And the MIC (B. cereus (isolate); Bacillus cereus, antibiotics, read-out: MIC)?
**A.** 0.25 µg/mL (≈ 0.563 µM)

**Q.** And the “BIC90 (biofilm inhibitory concentration, 90% reduction of biofilm coverage)” value (P. aeruginosa biofilm)?
**A.** >1000 µg/mL

**Q.** And the IC50 (P. aeruginosa biofilm; Pseudomonas aeruginosa, read-out: BIC50 (biofilm inhibitory concentration, 50% reduction of biofilm coverage))?
**A.** > 1000 µg/mL
